Test results reported in US10485814B2, “Nicotinamide riboside analogs and pharmaceutical compositions and uses thereof” (GlaxoSmithKline Intellectual Property (No. 2) Limited, priority 2014, dated 2019).

How the values were obtained:
[1] = test system: Reconstructed human epidermis (EpiDerm, EPI-200); assay: UVB-induced inflammation mediators in reconstructed epidermal equivalents; assay type: cell-based; settings: topical 1 hr pre-treatment, NRH 0.1% or niacinamide 3%, UVB 150 mJ/cm^2, media 6 hr post irradiation
Description: Solar Ultraviolet (UV) light exposure on skin causes photoaging, sunburn, DNA damages and carcinogenesis. UV radiation (UVR) also results in inflammation, which can be measured in vitro by pro-inflammatory mediators, e.g., TNF-α, IL-8. The in vitro reconstructed human epidermis (RHE) model is used to evaluate the anti-inflammatory effect of NRH.
Reconstructed human epidermis (EpiDerm, EPI-200, made of normal human epidermal keratinocytes, MatTek, Ashland, Mass.), were placed into media (EPI-100-ASY, 1.0 ml/well of 6-well plates) and incubated overnight at 37° C./5% CO2. The media was replenished with fresh culture media prior to study. NRH at 0.1% and niacinamide at 3% in vehicle (50% H2O/35% ethanol/15% propylene glycol, v/v/v) were applied topically at 6 μl and then gently spread onto the skin equivalents (˜20 rotations) using the rubber side of a plunger of 1 ml syringe. Vehicle was served as an untreated control. After 1 hr pre-treatment with NRH, niacinamide, or vehicle control, the EpiDerm tissues were transferred to a sterile 6-well plate containing 1 ml of DPBS per well and then exposed to UVB at 150 mJ/cm^2. The Newport Solar Simulator System (Power unit 69920, and Lamp 91192-1000, Newport Corporate, Irvine, Calif.) was used as the UVB emitter to achieve a UVB irradiation of 150 mJ/cm^2. Measurement of the irradiation was taken using an ILT-1400 Handheld, Portable Radiometer/Photometer (International Light Technologies, Inc., Peabody, Mass.) with a UVB detector (SEL240/T2ACT5, 235-307 nm, International Light Technologies, Inc.). After UVB irradiation, EpiDerm tissues were transferred back to the 6-well plate containing media and incubated at 37° C./5% CO2 for 6 hours. At the end of the incubation (6 hr post UVB irradiation), culture media were collected for the measurement of IL-8, and TNF-α concentration by MagPix (Millipore, HCYTOMAG-60K).

HaCaT cells = assay: H2O2-induced reactive oxygen species (ROS) in HaCaT cells (CellROX deep red); assay type: cell-based, human; settings: 3 hr pre-incubation then 250 μM H2O2, Hydroxyterosol 0.005%, niacinamide 4.5 mM, NRH several concentrations
Description: HaCaT cells were grown as described in example 23 and were seeded in 96-well plates (Nunc™ black with optical bottom, Thermo Fisher Scientific, Inc., Waltham, Mass.) with a density at 2×10^4 cells per well and 100 μl medium in each well, and grown overnight before treatments. Stock solutions of NRH and other test compounds were prepared and diluted to 2× of final treatment concentrations in DMEM medium in 96-well storage plate as indicated in the FIG. 11. HaCaT Cells were treated in triplicates by adding 100 μl of diluted solutions of test compounds (2×) to each well containing 100 μl medium already. Cells were incubated in the presence of test compounds for 3 hrs. At the end of 3 hr incubation, cells were washed once with 200 μl DPBS with Ca^++ and Mg^++ (Life Technologies) and then fed with 100 μl DMEM medium each well containing H2O2 at 250 μM (as a ROS (reactive oxygen species) inducer, Sigma). After 30 min incubation, cells were washed once with 200 μl DPBS with Ca^++ and Mg^++ and CellROX deep red reagent (2.5 mM stock solution, Life Technologies) was added to the medium to a final concentration of 5 μM. After 1 hr incubation at 37° C., 5% CO2, Cells were washed for 3 times with DPBS, fluorescence signal was read at Ex. 640 nm and Em. 665 nm in Biotek Synergy H4 microplate reader (BioTek, Winooski, Vt.). Untreated cells were served as controls (normalized to 1). All the treated samples were normalized to the untreated control.

[2] = test system: HaCaT cells (a human keratinocyte cell line); assay: Intracellular NAD measurement in HaCaT cells (ADPR cyclase enzymatic assay, absorbance 405 nm); assay type: cell-based
Description: HaCaT cells (AddexBio Technologies, San Diego, Calif., Passage 16-19) were grown in Medium DMEM/GlutMax (Life technologies, Grand Island, N.Y.) supplemented with 10% FBS (Life technologies) and Non-essential amino acids (NEAA, Life technologies) and then seeded in 12-well plates (Corning, Tewksbury, Mass.) with a density at 2×10^5 cells per well and 2 ml of culture medium in each well for overnight.
Stock solution of dihydronicotinamide riboside (NRH, GSK3008320A, GSK, RTP, NC) was prepared in ethanol at 100 mM (25.6 mg/ml) and stored at −20° C. Cells were treated with different concentrations of NRH for 3 hrs, washed twice with PBS containing 5 mM EDTA, and then subject to Nicotinamide adenine dinucleotide (NAD) measurement. In brief, acetonitrile (ACN) lysis buffer (Ammonium Acetate (50 mM) and 90% acetonitrile) was added to each well (200 μl/well) to lyse the cells at RT for 5-10 mins by gently rotating on a culture plate shaker at a low speed. Enzyme master mix (300 μM of 5-Amino-(3,4′-bipyridin)-6(1H)-one (Inamrinone) (Sigma-Aldrich), a substrate for ADP ribosyl cyclase (ADPR cyclase)) and 30 nM ADPR Cyclase (Sigma, St. Louis, Mo.), 7.5 μM of N-(2-fluoro-4-(methylsulfonyl)phenyl)-2-methyl-6-(thiazol-5-yl)isonicotinamide (a CD38 inhibitor) in 75 mM HEPES pH7 buffer (Life Technologies)) was added to the lysed cells (400 μl of enzyme master mix/well). Enzymatic reaction was incubated at RT for ˜30 min. At the end of incubation, the supernatant (200 μl) of the reaction solution from each well was transferred to each well of a 96-well plate and absorbance was read twice in the 96-well plate at 405 nm using a plate reader (Spectra Maxplus, Molecular Devices, Sunnyvale, Calif.). A mixture of enzyme master mix and ACN extraction solution at 2:1 ratio was used as a blank reference. NAD (Sigma) was used as a positive control.
HaCaT cells were grown as described in example 23 in the regular cell culture DMEM medium as described earlier or in the Epilife medium without nacinamide (Life Technologies). Cells were treated with different concentrations of NRH or niacinamide (NIA, DSM nutritional products) for 3 hrs, washed twice with PBS containing 5 mM EDTA, and then subject to Nicotinamide adenine dinucleotide (NAD) measurement as described in example 23. A mixture of enzyme master mix and ACN extraction solution at 2:1 ratio for a blank reference. NAD (Sigma) was used as a positive control. […] Both the CD38 inhibitor and Niacinamide increased NAD in the HaCaT cells cultured in the Vit B3 depleted culture medium, and the induction of NAD by niacinamide was dose-dependent (solid bars). However, the induction of NAD by niacinamide (highest at ˜1.5 fold) was low compared to those by NRH. Therefore, NRH is a stronger NAD inducer compared to a CD38 inhibitor or Niacinamide.
(§1) HaCaT cells were grown in regular culture media as described in example 1 and seeded in 12-well plates with density at 2×10^5 cells per well and 1 ml of culture medium in each well. NRH stock solution was prepared in ethanol at 100 mM (25.6 mg/ml) and stored at −20° C. Stock solutions of NRH esters were made at 50 mM in DMSO (see FIG. 9B for compound info). Cells were treated with NRH esters and NRH at 150 μM for 6 and 16 hrs, washed twice with PB S containing 5 mM EDTA, and then subject to Nicotinamide adenine dinucleotide (NAD) measurement as described in example 23.
HaCaT cells were grown in regular culture media as described above and seeded in 12-well plates with density at 2×10^5 cells per well and 1 ml of culture medium in each well. NRH stock solution was prepared in ethanol at 100 mM (25.6 mg/ml) and stored at −20° C. NRH (200 μM) was used as a positive control. Because of the possible solubility issue related to NRH monoC16, fatty acid-free bovine serum albumin (defatted BSA, Sigma) was used as a carrier for the compound. NRH monoC16 stock solution (100×) was complexed with defatted BSA ([…]) prior to the treatment, resulting in a NRH monoC16 stock solution (10 ×). […]

Human dermal fibroblasts = assay: TNFα-induced gene expression in dermal fibroblasts (QPCR); assay type: cell-based; settings: TNFα 10 ng/ml, 30 hr
Description: Human dermal fibroblasts were grown in regular culture media as described in example 23 above and seeded in 12-well plates at 2×10^5 cells per well for overnight. Cells were then replenished with fresh medium and treated with TNFα (10 ng/ml) with and without NRH (200 μM) for 30 hr. At the end of the incubation, cells were washed once with HBSS with Ca^2+ and Mg^2+ (Life Technologies), and subject to RNA isolation and QPCR analyses.

[3] = Precipitation on addition of stock solution to cell culture media; assay type: physicochemical
Description: as §1
HaCaT cells were grown in regular culture media as described above and seeded in 12-well plates with density at 2×10^5 cells per well and 1 ml of culture medium in each well. NRH stock solution was prepared in ethanol at 100 mM (25.6 mg/ml) and stored at −20° C. NRH (200 μM) was used as a positive control. Because of the possible solubility issue related to NRH monoC16, fatty acid-free bovine serum albumin (defatted BSA, Sigma) was used as a carrier for the compound. NRH monoC16 stock solution (100×) was complexed with defatted BSA ([…]) prior to the treatment, resulting in a NRH monoC16 stock solution (10 ×). NRH monoC16 was then added to the culture media giving a final BSA concentration of 100 μM. […] Defatted BSA was also added to the control samples at a final concentration of 100 μM. […]

[4] = Gravimetric Vapor Sorption (GVS); assay type: physicochemical; settings: 90% RH, 25° C.
Description: Gravimetric Vapor Sorption (GVS): Samples were analyzed using a VTI corporation (now part of TA Instruments) SGA-100 with Cahn microbalance equipped with quartz sample and reference pans. Samples were dried in the SGA-100 under dry nitrogen for 5 hours at 25° C. followed by a moisture absorption step ramp from 5% relative humidity (RH) to 95% or 90% RH followed by a desorption step ramp back to 5% or 10% RH (all steps at 25° C.). The samples were held at each % RH step for 4 hours.

[5] = HaCaT in Vit B3 depleted culture medium, 3 hrs

## NC(=O)c1cccnc1 [Niacinamide, pyridine-3-carboxamide, reference compound]
[1]
  UVB-induced IL-8: not
  UVB-induced TNF-α: not
[1]; listed as niacinamide
  UVB-induced IL-8: did not inhibit
  UVB-induced TNF-α: did not inhibit
HaCaT cells
  H2O2-induced ROS: did not inhibit
[2]; HaCaT in DMEM medium with Vit B3, highest tested doses, 3 hrs
  NAD elevation: did not lead to NAD elevation
[2]; [5]
  NAD level: increased NAD
  dose dependence of induction of NAD: dose-dependent
  induction of NAD (highest): ~1.5 fold

## TNF-α
Human dermal fibroblasts
  COX-2 gene expression: induced COX-2 gene expression

## CCCCCCCCCCCCCCCC(=O)OC[C@H]1O[C@@H](N2C=CCC(C(N)=O)=C2)[C@H](O)[C@@H]1O [NRH monoC16]
[3]; 50 mM DMSO stock added to culture media, 150 μM
  precipitation when stock solution added to the media: noticeable precipitations occurred
[3]; stock complexed with defatted BSA, final BSA 100 μM
  precipitation in culture media: no precipitation was observed
[2]; HaCaT, 150 μM, 6 and 16 hrs
  NAD boosting activity: higher NAD boosting activity compared to all the other tested NR esters
[2]; HaCaT, defatted BSA carrier
  activity after 24 hr compared with 6 hr treatment: a higher activity was observed
[2]; HaCaT, different concentrations, defatted BSA carrier (100 μM), 6 and 24 hrs
  NAD levels: increases NAD levels in a dose dependent manner
[2]; HaCaT, same concentrations, defatted BSA carrier
  NAD boosting activity relative to NRH: slightly lower than that of NRH
[4]
  GVS weight gain from the dried state: approximately 7%
